From ChEMBL document CHEMBL1201862, “PubChem BioAssay data set” (2004)
Calls of active or inactive are those of the source.

Experiments:
[1] = Luminescence Cell-Based Dose Retest to Confirm Inhibitors of Cancer Stem Cells. [Related pubchem assays (depositor defined):AID2717, AID2721]; assay type: functional; conditions: Homo sapiens
[2] = target: Neurotensin receptor type 1 (Homo sapiens, UniProt P30989); assay type: functional;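 further: Image-based confirmatory dose-response assay measuring agonist activity at NTR1; NTR1-expressing U2OS osteosarcoma cells imaged for beta-arrestin GFP spot formation; agonist potency where compounds increase beta-arrestin recruitment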
Chain of Neurotensin receptor type 1 (P30989 whole entry): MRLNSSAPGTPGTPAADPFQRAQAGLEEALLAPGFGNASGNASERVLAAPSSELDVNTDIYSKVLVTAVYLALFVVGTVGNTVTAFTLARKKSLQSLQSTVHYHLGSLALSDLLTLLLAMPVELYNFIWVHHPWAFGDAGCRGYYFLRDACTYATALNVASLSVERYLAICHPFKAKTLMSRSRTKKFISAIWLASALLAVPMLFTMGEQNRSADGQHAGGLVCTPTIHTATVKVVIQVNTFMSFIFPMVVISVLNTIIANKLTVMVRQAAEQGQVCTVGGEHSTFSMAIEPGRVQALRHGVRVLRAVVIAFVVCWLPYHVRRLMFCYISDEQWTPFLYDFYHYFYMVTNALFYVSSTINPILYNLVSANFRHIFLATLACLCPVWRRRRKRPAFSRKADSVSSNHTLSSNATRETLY

[3] = target: T1, Neuropeptide Y receptor type 1 (Homo sapiens, UniProt P25929); assay type: functional;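 further: HEK293 cells with a CNG channel challenged with NPY then isoproterenol; potency as antagonist that reverses NPY suppression of cAMP signal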
T1 sequence (P25929 whole entry): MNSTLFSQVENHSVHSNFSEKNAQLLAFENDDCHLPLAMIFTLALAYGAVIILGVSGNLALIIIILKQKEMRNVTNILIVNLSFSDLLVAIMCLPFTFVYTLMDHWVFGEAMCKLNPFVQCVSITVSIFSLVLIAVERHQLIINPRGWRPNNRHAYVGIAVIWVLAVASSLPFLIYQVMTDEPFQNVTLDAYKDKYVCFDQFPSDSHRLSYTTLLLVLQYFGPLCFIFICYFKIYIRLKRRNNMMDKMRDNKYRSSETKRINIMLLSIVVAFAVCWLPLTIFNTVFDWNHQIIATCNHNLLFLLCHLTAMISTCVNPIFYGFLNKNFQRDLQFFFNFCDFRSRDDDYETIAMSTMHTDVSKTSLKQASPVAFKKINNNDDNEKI

[4] = target: T2, Neuropeptide Y receptor type 2 (Homo sapiens, UniProt P49146); assay type: functional, cell-based;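 further: HEK293 cells expressing the receptor and a CNG channel; stimulus was NPY near EC95 followed by isoproterenol to raise cAMP; antagonist potency measured as restoring cAMP signal that NPY suppresses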
T2 sequence (P49146 whole entry): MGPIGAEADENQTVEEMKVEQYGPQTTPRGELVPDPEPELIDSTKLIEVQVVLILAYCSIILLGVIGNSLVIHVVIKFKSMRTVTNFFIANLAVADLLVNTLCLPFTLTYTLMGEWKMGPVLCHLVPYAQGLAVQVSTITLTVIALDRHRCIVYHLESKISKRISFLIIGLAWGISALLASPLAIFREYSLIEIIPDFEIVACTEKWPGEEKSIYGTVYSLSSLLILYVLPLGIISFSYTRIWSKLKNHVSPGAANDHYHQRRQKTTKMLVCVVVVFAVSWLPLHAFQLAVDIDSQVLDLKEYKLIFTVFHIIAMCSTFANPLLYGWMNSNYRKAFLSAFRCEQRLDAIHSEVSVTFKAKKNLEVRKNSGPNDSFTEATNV

Streptokinase A = target: T3, Streptokinase A (Streptococcus pyogenes serotype M1, UniProt P10520); test: S. pyogenes streptokinase expression inhibitors, potency, dose response, plasminogen activation absorbance, OD405 (AID 1914); assay type: functional, Streptococcus pyogenes M1 GAS;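 further: secreted streptokinase activity via plasminogen activation per viability signal from cell pellet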
T3 sequence (P10520 whole entry): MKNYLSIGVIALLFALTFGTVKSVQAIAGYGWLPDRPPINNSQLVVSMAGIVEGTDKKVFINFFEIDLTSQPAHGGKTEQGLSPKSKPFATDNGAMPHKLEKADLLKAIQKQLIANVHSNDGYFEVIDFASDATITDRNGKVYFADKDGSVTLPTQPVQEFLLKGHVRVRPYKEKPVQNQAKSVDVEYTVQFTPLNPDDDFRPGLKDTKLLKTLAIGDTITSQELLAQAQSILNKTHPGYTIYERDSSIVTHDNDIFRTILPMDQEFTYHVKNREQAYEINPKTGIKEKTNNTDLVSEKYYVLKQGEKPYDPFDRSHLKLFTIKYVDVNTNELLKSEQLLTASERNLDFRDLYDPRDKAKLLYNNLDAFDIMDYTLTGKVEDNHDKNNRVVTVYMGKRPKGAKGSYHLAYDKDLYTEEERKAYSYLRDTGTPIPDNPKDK

[5] = target: Melanin-concentrating hormone receptor 1 (Homo sapiens, UniProt Q99705); test: Late-stage fluorescence-based counterscreen for antagonists of the G-protein coupled receptor 7 (GPR7): cell-based dose response assay to identify antagonists of the melanin-concentrating hormone receptor 1 (MCHR1). [Related pubchem assays (depositor defined):AID1861, AID1880, AID1952, AID2148, AID2251, AID2257, AID485339]; assay type: functional;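 further: stimulated with 30 nM MCH peptide agonist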
Chain of Melanin-concentrating hormone receptor 1 (Q99705 whole entry): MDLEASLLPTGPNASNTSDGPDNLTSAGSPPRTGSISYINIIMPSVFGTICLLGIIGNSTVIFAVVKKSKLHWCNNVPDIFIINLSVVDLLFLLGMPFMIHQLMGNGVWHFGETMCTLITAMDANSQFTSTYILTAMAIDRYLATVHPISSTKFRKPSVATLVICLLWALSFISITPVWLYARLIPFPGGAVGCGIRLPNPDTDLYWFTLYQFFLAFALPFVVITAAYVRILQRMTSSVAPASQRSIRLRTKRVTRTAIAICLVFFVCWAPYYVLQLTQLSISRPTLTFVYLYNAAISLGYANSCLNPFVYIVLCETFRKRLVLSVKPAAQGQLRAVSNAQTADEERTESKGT

Cytochrome P450 3A4 = Cytochrome P450 3A4 (Homo sapiens, UniProt P08684); conditions: Potency;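 further: confirmatory qHTS run detecting inhibitors and substrates of CYP3A4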
Chain of Cytochrome P450 3A4 (P08684 whole entry): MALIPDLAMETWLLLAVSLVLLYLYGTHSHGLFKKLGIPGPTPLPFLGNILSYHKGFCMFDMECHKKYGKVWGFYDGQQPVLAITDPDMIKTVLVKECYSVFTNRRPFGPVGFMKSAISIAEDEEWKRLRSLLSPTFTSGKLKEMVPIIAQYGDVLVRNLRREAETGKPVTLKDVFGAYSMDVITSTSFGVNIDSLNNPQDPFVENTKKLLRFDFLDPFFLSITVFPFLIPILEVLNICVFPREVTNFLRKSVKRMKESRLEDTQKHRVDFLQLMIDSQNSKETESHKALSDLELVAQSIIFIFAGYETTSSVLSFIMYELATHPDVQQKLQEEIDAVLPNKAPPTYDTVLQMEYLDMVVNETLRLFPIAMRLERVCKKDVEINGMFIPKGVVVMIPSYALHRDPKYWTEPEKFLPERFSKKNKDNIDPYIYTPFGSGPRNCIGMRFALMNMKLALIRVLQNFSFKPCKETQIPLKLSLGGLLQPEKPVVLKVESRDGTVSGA

[6] = tested on: Streptococcus sp. 'group A'; test: growth inhibition of control SK(-) GAS strain, dose response, counter-screen for streptokinase expression inhibitor project, luminescence, kanamycin, BacTiterGlo, confirmation (AID 1900); assay type: functional, organism-based
SUMO-activating enzyme [7] = target: T4, SUMO-activating enzyme (Homo sapiens, UniProt Q9UBT2); test: SUMOylation inhibitor hit validation, confirmation, SUMOylation inhibitor project, biochemical, AlphaScreen (AID 2018); assay type: functional
T4 sequence (Q9UBE0 whole entry): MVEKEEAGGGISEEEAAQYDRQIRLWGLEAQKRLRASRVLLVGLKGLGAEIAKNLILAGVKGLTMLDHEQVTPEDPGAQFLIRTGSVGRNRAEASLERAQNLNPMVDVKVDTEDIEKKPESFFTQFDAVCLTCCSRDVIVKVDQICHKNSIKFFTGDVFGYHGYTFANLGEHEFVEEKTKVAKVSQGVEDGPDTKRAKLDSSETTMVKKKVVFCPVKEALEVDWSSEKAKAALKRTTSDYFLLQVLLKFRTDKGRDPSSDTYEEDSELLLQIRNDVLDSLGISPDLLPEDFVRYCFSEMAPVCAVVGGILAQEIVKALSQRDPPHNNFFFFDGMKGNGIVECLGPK
T4 sequence (Q9UBT2 whole entry): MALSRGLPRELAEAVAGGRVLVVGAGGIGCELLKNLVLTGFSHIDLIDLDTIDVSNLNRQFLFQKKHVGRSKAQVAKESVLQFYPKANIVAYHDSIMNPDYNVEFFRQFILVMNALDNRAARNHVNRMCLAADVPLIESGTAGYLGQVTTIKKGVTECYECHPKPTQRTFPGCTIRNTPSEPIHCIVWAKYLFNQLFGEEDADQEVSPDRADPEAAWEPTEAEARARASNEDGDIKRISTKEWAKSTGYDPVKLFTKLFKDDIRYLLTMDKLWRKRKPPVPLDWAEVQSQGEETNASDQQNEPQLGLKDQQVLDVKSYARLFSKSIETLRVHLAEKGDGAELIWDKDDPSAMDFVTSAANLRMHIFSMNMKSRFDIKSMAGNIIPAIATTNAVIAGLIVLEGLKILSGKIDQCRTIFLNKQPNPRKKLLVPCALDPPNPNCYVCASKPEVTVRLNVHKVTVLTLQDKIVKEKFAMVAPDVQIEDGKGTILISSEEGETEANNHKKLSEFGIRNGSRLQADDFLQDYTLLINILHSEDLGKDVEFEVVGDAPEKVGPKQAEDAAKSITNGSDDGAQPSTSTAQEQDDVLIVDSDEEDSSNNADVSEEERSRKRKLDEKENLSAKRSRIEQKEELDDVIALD

SUMO-activating enzyme [8] = target: T4, SUMO-activating enzyme; test: inhibitors of in vitro SUMOylation cascade, primary screen, biochemical, HTRF, uHTS (AID 2006); assay type: protein-complex assay
Streptococcus = test: Group A Streptococcus viability loss, dose response, counter-screen for streptokinase expression inhibitor project, luminescence, BacTiterGlo (AID 1915); assay type: functional, organism-based;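 further: potency for reduction of bacterial viability or growth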
[9] = target: 26S proteasome non-ATPase regulatory subunit 14 (Homo sapiens, UniProt O00487); test: inhibition of proteasome subunit RPN11 – biochemical, fluorescence polarization, uHTS hits, confirmation (AID 602368); assay type: functional
Chain of 26S proteasome non-ATPase regulatory subunit 14 (O00487 whole entry): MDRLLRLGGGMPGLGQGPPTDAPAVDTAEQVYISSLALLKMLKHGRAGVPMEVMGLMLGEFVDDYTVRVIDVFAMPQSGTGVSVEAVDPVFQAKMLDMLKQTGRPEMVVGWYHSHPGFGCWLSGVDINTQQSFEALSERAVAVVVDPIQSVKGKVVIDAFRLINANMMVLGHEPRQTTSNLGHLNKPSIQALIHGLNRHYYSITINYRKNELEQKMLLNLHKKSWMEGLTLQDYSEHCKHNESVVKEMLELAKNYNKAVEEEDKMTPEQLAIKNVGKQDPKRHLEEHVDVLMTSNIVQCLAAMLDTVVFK

[10] = target: 72 kDa type IV collagenase (Homo sapiens, UniProt P08253); test: Dose Response validation of uHTS RPN11 inhibitor hits using a MMP-2 Fluorescence assay.; assay type: functional
Chain of 72 kDa type IV collagenase (P08253 whole entry): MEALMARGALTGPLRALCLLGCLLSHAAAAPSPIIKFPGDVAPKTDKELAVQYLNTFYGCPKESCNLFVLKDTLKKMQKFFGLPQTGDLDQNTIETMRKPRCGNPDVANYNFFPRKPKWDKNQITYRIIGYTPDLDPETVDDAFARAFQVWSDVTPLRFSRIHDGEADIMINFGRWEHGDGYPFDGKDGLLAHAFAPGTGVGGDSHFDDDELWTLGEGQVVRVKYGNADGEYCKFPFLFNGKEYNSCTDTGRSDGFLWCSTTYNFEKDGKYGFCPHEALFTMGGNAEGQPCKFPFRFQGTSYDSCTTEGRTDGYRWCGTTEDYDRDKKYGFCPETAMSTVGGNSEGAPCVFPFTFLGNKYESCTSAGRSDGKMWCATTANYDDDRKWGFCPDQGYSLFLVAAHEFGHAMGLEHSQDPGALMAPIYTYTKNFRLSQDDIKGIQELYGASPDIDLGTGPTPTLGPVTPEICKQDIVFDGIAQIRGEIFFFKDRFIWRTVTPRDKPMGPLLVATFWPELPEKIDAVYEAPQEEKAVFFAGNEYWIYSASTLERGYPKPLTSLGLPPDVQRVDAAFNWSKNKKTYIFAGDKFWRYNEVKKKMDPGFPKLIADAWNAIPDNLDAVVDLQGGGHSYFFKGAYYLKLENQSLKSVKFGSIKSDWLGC

Prothrombin = Prothrombin (Bos taurus, UniProt P00735); test: thrombin inhibition, dose response, biochemical, fluorescence polarization, uHTS hits (AID 602369); assay type: functional
[11] = target: T5, Small ubiquitin-related modifier 1 (Homo sapiens, UniProt P63165); test: inhibitors of SUMO1 peptide binding, dose response, biochemical, fluorescence polarization, uHTS hits (AID 624382); assay type: functional; conditions: read-out: IC50_Mean
T5 sequence (P63165 whole entry): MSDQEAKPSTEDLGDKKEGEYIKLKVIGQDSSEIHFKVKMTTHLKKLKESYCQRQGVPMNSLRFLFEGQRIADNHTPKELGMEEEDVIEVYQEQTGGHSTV

[12] = target: T5, Small ubiquitin-related modifier 1; test: inhibitors of SUMO1 partner interactions, dose response, biochemical, FRET (AID 624383); assay type: functional; conditions: read-out: IC50_Mean
[13] = inhibitors of firefly luciferase expression or activity, dose response, H4 neuroglioma cells, luminescence (AID 1990); assay type: functional, cell-based
[14] = luciferase reporter signal reduction – luminescence, H4-C neuroglioblastoma cells, dose response (AID 2458); assay type: functional, cell-based;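 further: H4 neuroglioblastoma cells stably carrying a luciferase reporter gene fusion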
cells = assay type: functional, cell-based
[15] = Luminescence Cell-Based Dose Response HTS to Identify Inhibitors of 5'UTR Stem-Loop Driven Prion Protein mRNA Translation in H4 Neuroglioblastoma Cells. [Related pubchem assays: 1827 (Project Summary), 1813 (Primary HTS)]; assay type: functional
[16] = inhibitors of SNCA 5'UTR-driven reporter translation, confirmation, H4 neuroglioma cells, luminescence (AID 1988); assay type: functional, cell-based
[17] = cytotoxicity in HPDE-C7 cells, cell-based, fluorescence, HTS (AID 430); assay type: functional; conditions: Homo sapiens
[18] = cytotoxicity in KRAS-transformed pancreatic duct cells, primary screen, cell-based, fluorescence, HTS (AID 431); assay type: functional; conditions: Homo sapiens;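 further: cell line used: HPDE-C7K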
Estrogen receptor = target: T6, Estrogen receptor (Homo sapiens, UniProt P03372); test: potentiators of ERα–SRC-1 coactivator binding, dose response, biochemical, TR-FRET, ERα LBD (AID 737)
T6 sequence (P03372 whole entry): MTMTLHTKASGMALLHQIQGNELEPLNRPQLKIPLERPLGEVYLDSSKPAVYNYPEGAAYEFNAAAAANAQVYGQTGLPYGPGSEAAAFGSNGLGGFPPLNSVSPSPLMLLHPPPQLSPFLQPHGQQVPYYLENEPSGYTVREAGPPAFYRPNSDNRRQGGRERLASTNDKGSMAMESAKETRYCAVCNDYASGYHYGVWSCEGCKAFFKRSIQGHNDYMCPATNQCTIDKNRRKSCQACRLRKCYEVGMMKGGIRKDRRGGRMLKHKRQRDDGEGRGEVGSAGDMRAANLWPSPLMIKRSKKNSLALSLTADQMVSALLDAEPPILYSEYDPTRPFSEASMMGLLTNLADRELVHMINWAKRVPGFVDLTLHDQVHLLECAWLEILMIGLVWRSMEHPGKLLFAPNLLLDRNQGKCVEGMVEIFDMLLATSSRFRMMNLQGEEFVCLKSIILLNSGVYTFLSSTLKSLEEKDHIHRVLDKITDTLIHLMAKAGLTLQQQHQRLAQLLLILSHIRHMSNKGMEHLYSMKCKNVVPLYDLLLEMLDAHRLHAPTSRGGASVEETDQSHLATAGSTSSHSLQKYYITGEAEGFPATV

[19] = inhibitors of SNCA 5'UTR-driven translation, confirmation, luminescence, H4 neuroglioblastoma cells, dose confirmation (AID 2454); assay type: functional, cell-based;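 further: H4 neuroglioblastoma cells carrying an alpha-synuclein 5'UTR luciferase reporter; potency for inhibition of the luciferase signal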
[20] = cytotoxicity in HEK-293T cells, dose response, cytotoxicity control for TCR NF-kB inhibitor project, luminescence, T-cell screen hits (AID 489026); assay type: functional, cell-based;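 further: cells exposed to compound about 14 hours before the viability readout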
[21] = target: G-protein coupled receptor 35 (Homo sapiens, UniProt Q9HC97); test: GPR35 antagonists blocking zaprinast-driven arrestin recruitment, primary screen, imaging, U2OS, beta-arrestin-GFP, zaprinast agonist (AID 2058); assay type: functional;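 further: antagonist potency meaning inhibition of agonist-induced arrestin redistribution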
Chain of G-protein coupled receptor 35 (Q9HC97 whole entry): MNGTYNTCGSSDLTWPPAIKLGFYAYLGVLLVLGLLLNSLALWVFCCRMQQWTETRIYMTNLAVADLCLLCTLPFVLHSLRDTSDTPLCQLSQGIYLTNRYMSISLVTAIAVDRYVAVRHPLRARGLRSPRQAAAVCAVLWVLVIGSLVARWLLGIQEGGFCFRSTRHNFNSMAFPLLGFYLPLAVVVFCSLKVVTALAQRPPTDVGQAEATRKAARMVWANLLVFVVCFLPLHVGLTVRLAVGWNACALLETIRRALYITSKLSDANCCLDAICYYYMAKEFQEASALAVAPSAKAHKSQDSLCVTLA

Structure (SMILES): CCCCNc1c(-c2cccc(Sc3ccc(OC)cc3)c2)nc2ccccn12
- AC50 [1]: 5.22 µM (active)
- EC50 [2]: 27.5 µM (inactive)

Structure (SMILES): COc1ccc(-c2[nH]nc3c2C(c2ccc(OC)c(OC)c2)N(c2ccccc2)C3=O)cc1 (stereo not given)
- IC50 [3]: 7.8 µM (active)
- IC50 [4]: 4.36 µM (active)

Structure (SMILES): Cc1cccc(NC(=O)c2nc[nH]c2C(=O)N[C@@H](Cc2ccccc2)C(=O)OC(C)(C)C)c1
- EC50 (Streptokinase A): > 150 µM (not active)
- EC50 [2]: 17.9 µM (active)

Structure (SMILES): COC(=O)c1cc2occc2n1Cc1nc(-c2ccccc2Cl)oc1C
- IC50 [3]: 7.7 µM (active)
- IC50 [4]: 8.2 µM (active)

Structure (SMILES): COc1ccc(Oc2c(Cl)cnn(-c3cccc4c3CCCC4)c2=O)cc1
- IC50 [5]: 4.1 µM (active)

Structure (SMILES): CCCn1c(-c2ccc(F)cc2)nc2c(NCC3CCN(C)CC3)nc(C)nc21
- AC50 (Cytochrome P450 3A4): 15.8 µM (inconclusive)

Structure (SMILES): Sc1nnc(-c2cc(-c3ccccc3)[nH]n2)n1/N=C/c1cccc(Cl)c1
- EC50 [6]: 16.7 µM (active)
- IC50 (SUMO-activating enzyme [7]): 3.34 µM (active)
- EC50 (Streptokinase A): > 150 µM (not active)
- IC50 (SUMO-activating enzyme [8]): 11.1 µM (active)
- EC50 (Streptococcus): 84.4 µM (active)
- IC50 [9]: 11.4 µM (active)
- IC50 [10]: > 100 µM (inactive)
- IC50 (Prothrombin): 33.8 µM (active)
- IC50 [11]: > 66.6 µM (inactive)
- IC50 [12]: 5.8 µM (active)

Structure (SMILES): CCN(CC)c1ccc(-c2nn3c(-c4ccccc4OC)nnc3s2)cc1
- EC50 [13]: < 0.1 µM (active)
- EC50 [14]: 0.214 µM (active)
- EC50 [6]: 6.86 µM (active)
- EC50 (cells): 0.346 µM (active)
- EC50 [15]: 8.94 µM (active)
- EC50 [16]: < 0.1 µM (active)
- EC50 (Streptokinase A): > 150 µM (not active)
- EC50 [17]: > 20 µM (not active)
- EC50 [18]: > 20 µM (not active)
- EC50 (Estrogen receptor): 18.2 µM (active)
- EC50 (Streptococcus): 8.67 µM (active)
- EC50 [19]: 0.17 µM (active)
- IC50 [20]: 49.9 µM (inactive)

Structure (SMILES): CCOC(=O)c1c(-c2ccccc2)csc1NC(=O)/C(C#N)=C/c1ccc(O)c(OC)c1
- IC50 [21]: 2.75 µM (active)

Structure (SMILES): CC(=O)OC1CC2C(C)(C)C=CC(=O)[C@@]2(C)C2CC[C@@]3(C)C(c4ccoc4)OC(=O)C4OC43[C@]12C (stereo not given in full)
- AC50 (Cytochrome P450 3A4): 15.8 µM (inconclusive)
